Test results taken from US20230406853A1, “COVALENT CDK2-BINDING COMPOUNDS FOR THERAPEUTIC PURPOSES” (Umbra Therapeutics, Inc., priority 2021, published 2023).

Biological target: CycE1-CDK2 (Homo sapiens, UniProt P24941)
Test: Cdk2 Enzymatic TR-FRET Assay
Format: biochemical
Details: CDK2/CycE 5 nM, ATP 100 μM, 60 minutes pre-incubation with compound; read-out: CDK2 Kinase
From the text: A TR-FRET system was used to detect CycE1-CDK2 kinase activity. The assay used a Europium-labeled anti-phospho-Ser/Thr antibody and ULight™-labeled peptide substrate (eIF4E-binding protein 1). When CycE1-CDK2 phosphorylates the peptide the phosphorylated Thr is recognized by the Europium-labeled anti-phospho-Ser/Thr antibody. Upon excitation of the Europium donor fluorophore at 337 nm, energy is transferred to the ULight™ acceptor dye on the substrate, resulting in the emission of light at 665 nm. The fluorescent signal is proportional to the level of ULight™ peptide phosphorylation and to the kinase activity.
The stock solution was prepared as follows: • 1× Reaction buffer: 50 mM HEPES pH 7.5, 10 mM MgCl2, 0.5 mM TCEP, 0.01% Tween®20, 1 mM EGTA, 0.001% fatty acid free (faf)-BSA; • 1× Detection buffer: equilibrate the Detection buffer at RT for at least 20 minutes then dilute 10-fold the stock in water; • 4×ENZYME mix: CDK2/CycE enzyme (5 nM final concentration in kinase reaction) in 1× Reaction buffer; • 4×SUBSTRATE mix: 4E-BP substrate (50 nM final concentration in kinase reaction)+ATP (100 μM final concentration in kinase reaction) in 1× Reaction buffer • 2×STOP/DETECTION mix: EDTA (10 mM final concentration in assay)+Anti-Phosphate antibody (0.5 nM final concentration in assay) in 1× Detection buffer • Neutral Control: Assay with no inhibition (MAX activity) • Inhibitor Control: Assay with IC100 (1 mM) reference inhibitor JNJ7706621 (MIN activity)
The assay was assembled directly in a white, small volume, Proxiplate (PerkinElmer) as follows: • Step 1: Charge compounds=5 μL/well • Step 2: Charge kinase=2.5 μL/well→total volume 7.5 μL/well • The plate is sealed and incubated at room temperature for 60 minutes • Step 3: Substrate mix (substrate/ATP)=2.5 μL/well→total enzymatic reaction volume 10 μL/well • The plate is sealed and incubated at room temperature for 60 minutes • Step 4: Stop/Detection mix (EDTA/antibody)=10 μL/well→total volume 20 μL/well • The plate is sealed and incubated at room temperature for at least 2 hours and fluorescence signal is measured at PHERAstar FSX The reading conditions are the followings for PHERAstar FSX:
A 384-microtiter plate (MTP), containing 20 test compounds in eight-points dose response, is prepared. Test compounds dose response curves are prepared in automation in 100% DMSO in a CyBio Felix, starting from a DMSO stock solution of 10 mM. To obtain the eight-points dose-response curve, a serial dilution protocol in 100% DMSO is performed for each compound by using a 96 MTP as a support. 20 μL of the 10 mM stock solutions are transferred in row A of a 96 MTP U-bottom from column 2 to 11 for a total of 10 compounds/plate. Starting from the 10 mM stock, serial dilutions across rows, from A to B and proceeding up to H, are performed for each compound by transferring 6.3 μL of the more concentrated fluid in 13.7 μL of 100% DMSO.
In order to generate duplicate data points each well of the 96 MTP is then replicated into two wells of a 384 MTP plate for each compound and for each concentration to be tested. The 384 MTP compound plate is used as source plate in a “mother to child” process with a CyBi®-Well dispenser in which 1 μL of compound is moved into a destination plate pre-filled with 24 μL of reaction buffer, obtaining 2× concentrated compound solution.
Genedata Screener® 17.0 was used for data analysis. In the implemented workflow, the following calculations were conducted: • Calculate the Response Value (KRV) from the respective original data as follow:
HTRF Assay: Ratio=665 nm_FRET/620 nm_Ab*10000 • Calculate the % Inhibition of the compound (Inhibitory effect). KRV was normalized versus Neutral Controls and Inhibitor Controls (JNJ7706621) to obtain Activity % according to the following formula:
Activity %=−100*(x−<Neutral Control>)/(<Inhibitor Control>−<Neutral Control>) […]

Row | Compound | IC50
1 | CS(=O)(=O)N1CCC(Nc2ncc3ccc(=O)n(CC(=O)Nc4ccc(S(=O)(=O)n5cnc(C6CCCC6)n5)cc4)c3n2)CC1 [Compound 273] | > 200 µM
2 | CC(C)N1CCC(Nc2ncc3ccc(=O)n(CCCS(=O)(=O)n4cnc(C5CC5)n4)c3n2)CC1 [Compound 277] | > 200 µM
3 | O=C(Cn1c(=O)ccc2cnc(NCC3CC3)nc21)Nc1ccc(S(=O)(=O)n2cnc(C3CC3)n2)cc1 [Compound 278] | > 200 µM
4 | CN1CCC(Nc2ncc3ccc(=O)n(CC(=O)Nc4ccc(S(=O)(=O)n5cnc(C6CC6)n5)cc4)c3n2)CC1 [Compound 280] | > 200 µM
5 | O=C(Cn1c(=O)ccc2cnc(NCC3CCCCC3)nc21)Nc1ccc(S(=O)(=O)n2cnc(C3CC3)n2)cc1 [Compound 282] | > 200 µM
6 | CS(=O)(=O)N1CCC(Nc2ncc3cc(Cl)c(=O)n(CCCS(=O)(=O)n4cnc(-c5ccccc5)n4)c3n2)CC1 [Compound 287] | < 10 µM
7 | COCCc1cc2cnc(NC3CCN(S(C)(=O)=O)CC3)nc2n(CCCS(=O)(=O)n2cnc(C3CC3)n2)c1=O [Compound 288] | < 10 µM
8 | Cc1cc2cnc(NC3CCN(S(C)(=O)=O)CC3)nc2n(CCCS(=O)(=O)n2cnc(C3CC3)n2)c1=O [Compound 289] | < 10 µM
9 | CS(=O)(=O)N1CCC(Nc2ncc3cc(CO)c(=O)n(CCCS(=O)(=O)n4cnc(-c5ccccc5)n4)c3n2)CC1 [Compound 290] | < 10 µM
10 | CS(=O)(=O)N1CCC(Nc2ncc3ccc(=O)n(CCS(=O)(=O)n4cncn4)c3n2)CC1 [Compound 291] | < 10 µM
11 | CC(C)CNc1ncc2ccc(=O)n(CC(=O)Nc3ccc(S(=O)(=O)n4cnc(C5CC5)n4)cc3)c2n1 [Compound 292] | > 200 µM
12 | CC(C(=O)Nc1ccc(S(=O)(=O)n2cnc(-c3ccccc3)n2)cc1)n1c(=O)ccc2cnc(NC3CCN(S(C)(=O)=O)CC3)nc21 (stereo not shown) [Compound 293] | < 10 µM
13 | CC(C(=O)Nc1ccc(S(=O)(=O)n2cncn2)cc1)n1c(=O)ccc2cnc(NC3CCN(S(C)(=O)=O)CC3)nc21 (stereo not shown) [Compound 294] | < 10 µM
14 | O=C(Cn1c(=O)ccc2cnc(NC3CCCCCC3)nc21)Nc1ccc(S(=O)(=O)n2cnc(C3CC3)n2)cc1 [Compound 295] | > 200 µM
15 | CS(=O)(=O)N1CCC(Nc2ncc3cc(CO)c(=O)n(CCCS(=O)(=O)n4cncn4)c3n2)CC1 [Compound 296] | < 10 µM
16 | CS(=O)(=O)N1CCC(Nc2ncc3cc(CCO)c(=O)n(CCCS(=O)(=O)n4cncn4)c3n2)CC1 [Compound 297] | < 10 µM
17 | Cc1cc2cnc(NC3CCN(S(C)(=O)=O)CC3)nc2n(CCCS(=O)(=O)n2cncn2)c1=O [Compound 298] | < 10 µM
18 | Cc1cc2cnc(NC3CCN(S(C)(=O)=O)CC3)nc2n(CCCS(=O)(=O)n2cnc(-c3ccccc3)n2)c1=O [Compound 299] | < 10 µM
19 | CS(=O)(=O)N1CCC(Nc2ncc3cc(CO)c(=O)n(CCCS(=O)(=O)n4cnc(C5CC5)n4)c3n2)CC1 [Compound 300] | < 10 µM

Other lines, results leading:

Row | IC50 | Compound
20 | < 10 µM | CS(=O)(=O)N1CCC(Nc2ncc3ccc(=O)n(CCS(=O)(=O)n4cnc(-c5ccccc5)n4)c3n2)CC1 [Compound 274]
21 | < 10 µM | O=C(Cn1c(=O)ccc2cnc(NC3CCOC3)nc21)Nc1ccc(S(=O)(=O)n2cnc(C3CC3)n2)cc1 (stereo not shown) [Compound 275]
22 | < 10 µM | CS(=O)(=O)N1CCC(Nc2ncc3cc(CCO)c(=O)n(CCCS(=O)(=O)n4cnc(C5CC5)n4)c3n2)CC1 [Compound 276]
23 | < 10 µM | O=C(Cn1c(=O)ccc2cnc(NC3CCOCC3)nc21)Nc1ccc(S(=O)(=O)n2cnc(C3CC3)n2)cc1 [Compound 279]
24 | < 10 µM | O=C(Cn1c(=O)ccc2cnc(NC3CC(F)(F)C3)nc21)Nc1ccc(S(=O)(=O)n2cnc(C3CC3)n2)cc1 [Compound 281]
25 | < 10 µM | O=C(Cn1c(=O)ccc2cnc(NC3CC3)nc21)Nc1ccc(S(=O)(=O)n2cnc(C3CC3)n2)cc1 [Compound 283]
26 | < 10 µM | CS(=O)(=O)N1CCC(Nc2ncc3cc(CCO)c(=O)n(CCCS(=O)(=O)n4cnc(-c5ccccc5)n4)c3n2)CC1 [Compound 284]
27 | < 10 µM | CS(=O)(=O)N1CCC(Nc2ncc3cc(Cl)c(=O)n(CCCS(=O)(=O)n4cncn4)c3n2)CC1 [Compound 285]
28 | < 10 µM | CS(=O)(=O)N1CCC(Nc2ncc3cc(Cl)c(=O)n(CCCS(=O)(=O)n4cnc(C5CC5)n4)c3n2)CC1 [Compound 286]
